# Experimental data reported in patent US6514732B1, “Process for preparing baccatin” (Indena S.p.A., priority 1998, dated 2003).
# Entries after “also recorded” stand apart in the source; their conditions may differ.
# Key:
# Format in all cases: biochemical, Taxus chinensis
# [1] = test system: acetyl transferase (acetyl CoA 10-hydroxytaxane-O-acetyl transferase); experiment: Substrate specificity of the purified acetyl transferase (conversion of taxane substrates with [2-14C]acetyl CoA); details: for Conversion, based on the conversion of 10-deacetyltaxuyunnanin C / pkat (enzyme activity with the substrate): Enzyme: Phenylsepharose eluate (225-fold purified); for acetylation / acceptance as substrate by the enzyme (in words): purified acetyl transferase, acetyl donor acetyl CoA
# Method: A sufficient amount of the enzyme solution to be tested was pipetted into 50 μl of tris buffer (0.8 M, pH 8.5) in an Eppendorf cap. 30 μl of purified acetyl CoA (5 nmol of unlabelled and 0.02 μCi-[2-^14C]acetyl coenzyme A) and 15 nmol of a 3 mM stock solution of 10-deacetyltaxuyunnanin C dissolved in DMSO were then added (for the control only the corresponding amount of DMSO instead of this taxane). The mixture was incubated at 35° C. for 30 minutes and then acidified using 20 μl of 12% H2SO4, the taxuyunnanin C formed was extracted using 600 μl of tert-butyl methyl ether (10 min. in an overhead shaker) and the mixture was then centrifuged (4 min at 14,000 rpm in an Eppendorf centrifuge). The unreacted [2-^14C]acetyl CoA which was still present remained in the aqueous phase. 500 μl of the organic phase were evaporated to dryness in a stream of air, which simultaneously removed any [2-^14C]acetic acid present which, owing to the earlier acidification, was present as the acid and was therefore volatile. Using a scintillation counter (Multipurpose Scintillation Counter LS 6500, from Beckmann) or a thin-layer radioscanner (Automatic TLC Linear Analyser, from Berthold), the type and the amount of the product formed were determined. The former apparatus was used to determine the conversion and thus the activity of the enzyme using the cpm values counted. With the aid of thin-layer chromatography (TLC) (mobile phase: chloroform:acetonitrile 7:3) and the subsequent evaluation using a radioscanner, it was possible to check whether the radioactivity measured using the scintillation counter did indeed correspond to a peak in the region of the Rf value of the expected product.
# To check the substrate specificity of the purified acetyl transferase, various compounds having a taxane skeleton were used as substrate.
# 10-DAB is converted with a rate of conversion of 85%, compared to 10-deacetyltaxuyunnanin C to baccatin III.
# Conversion of Various Substrates, Based on the Conversion of 10-deacetyltaxuyunnanin C
# Enzyme: Phenylsepharose eluate (225-fold purified)
# [2] = test system: acetyl transferase; experiment: KM value determination for 10-deacetyltaxuyunnanin C (Lineweaver-Burk); details: phenylsepharose eluate, 225-fold enriched; 30 min at 35° C., pH 8.5
# Method: To gain information about the affinity of the acetyl transferase to 10-deacetyltaxuyunnanin C, the KM value of the phenylsepharose eluate was determined.
# 100 μl of acetyl-transferase (0.25 pcat, 40 ng of protein, 225-fold enriched)
# 30 μl of acetyl coenzyme A (5 nmol, additionally containing 0.02 μCi[2-^14C]acetylCoA)
# 30 min at 35° C.; evaluation of the radioactivity, which had been extracted using tert-butyl methyl ether, using a scintillation counter.
# By plotting the measured results in a doubly reciprocal manner according to Lineweaver and Burk, the KM value for 10-deacetyltaxuyunnanin C was determined graphically to be 23 μM.
# [3] = test system: acetyl transferase; experiment: KM value determination for acetyl coenzyme A (Lineweaver-Burk); details: phenylsepharose eluate, 225-fold enriched; 30 min at 35° C., pH 8.5
# Method: The affinity of acetyl transferase to acetyl coenzyme A can be described by the KM value, which was determined using the phenylsepharose eluate.
# 100 μl of acetyl transferase (0.25 pcat, 40 ng of protein, 225-fold enriched)
# 5 μl of 3 mM 10-deacetyltaxuyunnanin C (15 nmol)
# 30 min at 35° C. Evaluation was subsequently carried out by extraction with tert-butyl methyl ether and the use of a scintillation counter. By plotting the measured values in a doubly reciprocal manner according to Lineweaver and Burk, the KM value for acetyl coenzyme A was determined at 61 μM.
Molecule,"Conversion, based on the conversion of 10-deacetyltaxuyunnanin C [1] [%]",pkat (enzyme activity with the substrate) [1] [pkat],further results
"2,10,14-deacetyltaxuyunnanin C [2,10,14-Desacetyltaxuyunnanin C]",81,0.91,
"10,14-deacetyltaxuyunnanin C [10,14-Desacetyltaxuyunnanin C]",102,1.14,
"C=C1C(O)CCC2(C)CC(O)C3=C(C)CC(O)C(C(O)C12)C3(C)C (centres unmarked) [2,5,10,14-Desacetyltaxuyunnanin C, 2,5,10,14-deacetyltaxuyunnanin C]",53,0.59,
"C=C1C(O)CCC2(C)CC(O)C3=C(C)CC(O)C(C(OC(C)=O)C12)C3(C)C (centres unmarked) [5,10,14-Desacetyltaxuyunnanin C, 5,10,14-deacetyltaxuyunnanin C]",88,0.99,
CC(=O)O[C@@]12CO[C@@H]1C[C@H](OC(=O)OC(C)(C)C)[C@@]1(C)C(=O)[C@H](O)C3=C(C)[C@@H](O)C[C@@](O)([C@@H](OC(=O)c4ccccc4)[C@H]21)C3(C)C [7-BOC-10-DAB III],2,2,acetylation / acceptance as substrate by the enzyme (in words) [1]: not recognized as substrates
CC[Si](CC)(CC)O[C@H]1C[C@H]2OC[C@@]2(OC(C)=O)[C@H]2[C@H](OC(=O)c3ccccc3)[C@]3(O)C[C@H](O)C(C)=C([C@@H](O)C(=O)[C@]12C)C3(C)C [7-TES-10-DAB III],0,0,acetylation / acceptance as substrate by the enzyme (in words) [1]: not recognized as substrates
"CC(=O)O[C@@]12CO[C@@H]1C[C@H](O)[C@@]1(C)C(=O)[C@H](O)C3=C(C)[C@@H](O)C[C@@](O)([C@@H](OC(=O)c4ccccc4)[C@H]21)C3(C)C [10-Desacetylbaccatin III, 10-deacetylbaccatin III]",80,0.9,"Conversion, based on the conversion of 10-deacetyltaxuyunnanin C ([1]; listed as 10-DAB): 85%"
"C=C1[C@@H](OC(C)=O)CC[C@@]2(C)C[C@H](O)C3=C(C)C[C@H](OC(C)=O)[C@@H]([C@@H](OC(C)=O)[C@H]12)C3(C)C [10-Desacetyltaxuyunnanin C, 10-deacetyltaxuyunnanin C]",100,1.12,Km [2]: 23 µM
CC=C(C)C(=O)NC(c1ccccc1)C(O)C(=O)OC1CC2(O)C(OC(=O)c3ccccc3)C3C4(OC(C)=O)COC4CC(O)C3(C)C(=O)C(O)C(=C1C)C2(C)C (centres unmarked) [10-deacetylcephalomannin],,,acetylation / acceptance as substrate by the enzyme (in words) [1]: not acetylated; also recorded: acetylation does not take place
CC(=O)O[C@@]12CO[C@@H]1C[C@H](O)[C@@]1(C)C(=O)[C@H](O)C3=C(C)[C@@H](OC(=O)[C@H](O)[C@@H](NC(=O)c4ccccc4)c4ccccc4)C[C@@](O)([C@@H](OC(=O)c4ccccc4)[C@H]21)C3(C)C [10-deacetyltaxol],,,acetylation / acceptance as substrate by the enzyme (in words) [1]: not acetylated; also recorded: acetylation does not take place
CC(=O)OC12COC1CC(O)C1(C)C(=O)C(O)C3=C(C)C(O)CC(O)(C(OC(=O)c4ccccc4)C21)C3(C)C (stereo not drawn) [10-epi-10-DAB III],0,0,
"CC(=O)OC12COC1CC(O)C1(C)C(=O)C(O)C3=C(C)C(O)C(O)C(O)(C(OC(=O)c4ccccc4)C21)C3(C)C (centres unmarked) [14-Hydroxy-10-DAB III, 14-hydroxy-10-deacetylbaccatin III]",97,1.09,
"CC(=O)O[C@@]12CO[C@@H]1C[C@H](O)[C@@]1(CO)C(=O)[C@H](O)C3=C(C)[C@@H](O)C[C@@](O)([C@@H](OC(=O)c4ccccc4)[C@H]21)C3(C)C [19-Hydroxy-10-DAB III, 19-hydroxy-10-DAB III]",38,0.43,
CC(=O)SCCNC(=O)CCNC(=O)[C@H](O)C(C)(C)COP(=O)(O)OP(=O)(O)OC[C@H]1O[C@@H](n2cnc3c(N)ncnc32)[C@H](O)[C@@H]1OP(=O)(O)O [acetyl coenzyme A],,,Km [3]: 61 µM
